Measured values reported in the NIST ThermoML archive (doi:10.1016/j.fluid.2018.10.006).
Where “and” joins values, the source holds several entries; their conditions need not be identical. Equal values may be shown once. ± gives the expanded uncertainty stated by the source.

Details: Fluid (supercritical or subcritical phases), Coaxial cylinder method

CCCCCC [hexane]
thermal conductivity
Details | 508.17 K | 508.92 K
900 kPa | – | 0.03769 ± 0.0019 W/m/K
1100 kPa | – | 0.03855 ± 0.002 W/m/K
1234 kPa | – | 0.03889 ± 0.002 W/m/K
1401 kPa | – | 0.03933 ± 0.002 W/m/K
1510 kPa | – | 0.03959 ± 0.002 W/m/K
1603 kPa | – | 0.03996 ± 0.0021 W/m/K
1710 kPa | – | 0.04032 ± 0.0021 W/m/K
1806 kPa | – | 0.0407 ± 0.0021 W/m/K
1908 kPa | – | 0.04118 ± 0.0021 W/m/K
2006 kPa | – | 0.04167 ± 0.0021 W/m/K
2111 kPa | – | 0.04248 ± 0.0022 W/m/K
2210 kPa | – | 0.043 ± 0.0022 W/m/K
2300 kPa | – | 0.04353 ± 0.0022 W/m/K
2409 kPa | – | 0.04463 ± 0.0022 W/m/K
2509 kPa | – | 0.04579 ± 0.0023 W/m/K
2600 kPa | – | 0.04701 ± 0.0023 W/m/K
2650 kPa | – | 0.04777 ± 0.0024 W/m/K
2726 kPa | – | 0.0491 ± 0.0024 W/m/K
2744 kPa | – | 0.04937 ± 0.0024 W/m/K
2752 kPa | – | 0.04965 ± 0.0024 W/m/K
2763 kPa | – | 0.04993 ± 0.0025 W/m/K
2847 kPa | – | 0.05261 ± 0.0026 W/m/K
2898 kPa | – | 0.05429 ± 0.0027 W/m/K
2902 kPa | – | 0.05464 ± 0.0027 W/m/K
2927 kPa | – | 0.05568 ± 0.0027 W/m/K
2949 kPa | 0.0646 ± 0.0032 W/m/K | –
2953 kPa | 0.06509 ± 0.0032 W/m/K | –
2955 kPa | – | 0.05752 ± 0.0028 W/m/K
2956 kPa | 0.06509 ± 0.0032 W/m/K | –
2963 kPa | 0.06603 ± 0.0033 W/m/K | –
2966 kPa | 0.06628 ± 0.0033 W/m/K | –
2968 kPa | – | 0.05888 ± 0.0029 W/m/K
2970 kPa | 0.06681 ± 0.0034 W/m/K | –
2974 kPa | 0.06734 ± 0.0034 W/m/K | –
2975 kPa | – | 0.05948 ± 0.0029 W/m/K
2979 kPa | 0.06826 ± 0.0034 W/m/K | –
2982 kPa | 0.0687 ± 0.0035 W/m/K | –
2985 kPa | – | 0.06031 ± 0.003 W/m/K
2988 kPa | – | 0.06094 ± 0.003 W/m/K
2990 kPa | 0.07041 ± 0.0036 W/m/K | –
2991 kPa | 0.0707 ± 0.0037 W/m/K | –
2992 kPa | – | 0.06115 ± 0.003 W/m/K
2995 kPa | 0.07129 ± 0.0037 W/m/K | –
2998 kPa | 0.07219 ± 0.0039 W/m/K | –
2999 kPa | – | 0.06202 ± 0.0031 W/m/K
3002 kPa | 0.07324 ± 0.0041 W/m/K | –
3004 kPa | – | 0.06246 ± 0.0031 W/m/K
3007 kPa | 0.07436 ± 0.0044 W/m/K | –
3009 kPa | 0.07488 ± 0.0049 W/m/K | –
3011 kPa | – | 0.06336 ± 0.0032 W/m/K
3013 kPa | 0.0758 ± 0.0054 W/m/K | –
3015 kPa | 0.07648 ± 0.0048 W/m/K | 0.06429 ± 0.0032 W/m/K
3017 kPa | 0.07703 ± 0.0045 W/m/K | –
3019 kPa | – | 0.06477 ± 0.0033 W/m/K
3021 kPa | 0.07822 ± 0.0043 W/m/K | –
3022 kPa | 0.07848 ± 0.0043 W/m/K | –
3024 kPa | 0.0792 ± 0.0043 W/m/K | –
3025 kPa | – | 0.06574 ± 0.0033 W/m/K
3026 kPa | 0.07994 ± 0.0042 W/m/K | –
3028 kPa | – | 0.06624 ± 0.0034 W/m/K
3029 kPa | 0.08069 ± 0.0042 W/m/K | –
3031 kPa | 0.08185 ± 0.0042 W/m/K | –
3033 kPa | 0.08287 ± 0.0043 W/m/K | 0.06751 ± 0.0035 W/m/K
3034 kPa | 0.08344 ± 0.0043 W/m/K | –
3035 kPa | – | 0.06804 ± 0.0035 W/m/K
3036 kPa | 0.08467 ± 0.0043 W/m/K | –
3037 kPa | 0.08467 ± 0.0043 W/m/K | –
3038 kPa | 0.08604 ± 0.0044 W/m/K | –
3039 kPa | 0.08566 ± 0.0043 W/m/K | 0.06857 ± 0.0036 W/m/K
3040 kPa | 0.08735 ± 0.0044 W/m/K | –
3041 kPa | 0.08647 ± 0.0043 W/m/K and 0.08824 ± 0.0044 W/m/K | –
3042 kPa | 0.09103 ± 0.0046 W/m/K | 0.06938 ± 0.0037 W/m/K
3043 kPa | 0.09201 ± 0.0046 W/m/K | –
3044 kPa | – | 0.06994 ± 0.0038 W/m/K
3045 kPa | 0.09401 ± 0.0047 W/m/K | –
3046 kPa | 0.09504 ± 0.0047 W/m/K | –
3047 kPa | 0.0961 ± 0.0047 W/m/K | –
3048 kPa | 0.09828 ± 0.0049 W/m/K | 0.07107 ± 0.004 W/m/K
3049 kPa | 0.09941 ± 0.0049 W/m/K | –
3050 kPa | 0.1017 ± 0.005 W/m/K | 0.0715 ± 0.0041 W/m/K
3051 kPa | 0.1048 ± 0.0052 W/m/K | –
3052 kPa | 0.1081 ± 0.0053 W/m/K | 0.07223 ± 0.0043 W/m/K
3053 kPa | 0.1119 ± 0.0056 W/m/K | –
3054 kPa | 0.1168 ± 0.0058 W/m/K | –
3055 kPa | 0.1226 ± 0.0061 W/m/K | 0.07344 ± 0.0049 W/m/K
3056 kPa | 0.1319 ± 0.0066 W/m/K | 0.07375 ± 0.0052 W/m/K
3057 kPa | 0.1487 ± 0.0076 W/m/K | –
3058 kPa | 0.1625 ± 0.0084 W/m/K | –
3059 kPa | 0.1438 ± 0.0073 W/m/K | 0.07469 ± 0.0057 W/m/K
3060 kPa | 0.1319 ± 0.0065 W/m/K | 0.07532 ± 0.0053 W/m/K
3061 kPa | 0.1231 ± 0.006 W/m/K | –
3062 kPa | 0.1168 ± 0.0056 W/m/K | –
3063 kPa | 0.1123 ± 0.0054 W/m/K | 0.0763 ± 0.0045 W/m/K
3064 kPa | 0.1088 ± 0.0052 W/m/K | –
3065 kPa | 0.106 ± 0.005 W/m/K | 0.07747 ± 0.0043 W/m/K
3066 kPa | 0.1039 ± 0.0049 W/m/K | –
3067 kPa | 0.1024 ± 0.0048 W/m/K | 0.07868 ± 0.0042 W/m/K
3068 kPa | 0.1006 ± 0.0047 W/m/K | 0.07903 ± 0.0042 W/m/K
3069 kPa | 0.09945 ± 0.0046 W/m/K | 0.0801 ± 0.0042 W/m/K
3070 kPa | 0.09832 ± 0.0045 W/m/K | 0.08047 ± 0.0042 W/m/K
3071 kPa | 0.09743 ± 0.0045 W/m/K | 0.08084 ± 0.0042 W/m/K
3073 kPa | 0.09613 ± 0.0044 W/m/K | 0.08254 ± 0.0042 W/m/K
3074 kPa | 0.09508 ± 0.0043 W/m/K | 0.08353 ± 0.0042 W/m/K
3075 kPa | 0.09456 ± 0.0043 W/m/K | 0.08412 ± 0.0042 W/m/K
3076 kPa | 0.09404 ± 0.0043 W/m/K | 0.08532 ± 0.0042 W/m/K
3077 kPa | 0.09323 ± 0.0043 W/m/K | 0.08593 ± 0.0042 W/m/K
3078 kPa | 0.09287 ± 0.0042 W/m/K | 0.08697 ± 0.0043 W/m/K
3079 kPa | 0.09237 ± 0.0042 W/m/K | 0.08803 ± 0.0043 W/m/K
3080 kPa | 0.09171 ± 0.0042 W/m/K | 0.08934 ± 0.0043 W/m/K
3081 kPa | 0.09127 ± 0.0042 W/m/K | 0.09069 ± 0.0044 W/m/K
3082 kPa | 0.09079 ± 0.0043 W/m/K | 0.09234 ± 0.0044 W/m/K
3083 kPa | 0.09032 ± 0.0043 W/m/K | 0.09384 ± 0.0045 W/m/K
3084 kPa | 0.08985 ± 0.0043 W/m/K | 0.09568 ± 0.0046 W/m/K
3085 kPa | 0.08955 ± 0.0044 W/m/K | 0.0977 ± 0.0046 W/m/K
3086 kPa | 0.0889 ± 0.0045 W/m/K | 0.1001 ± 0.0047 W/m/K
3087 kPa | 0.08845 ± 0.0047 W/m/K | 0.103 ± 0.0048 W/m/K
3088 kPa | 0.088 ± 0.0048 W/m/K | –
3089 kPa | 0.08755 ± 0.005 W/m/K | –
3090 kPa | 0.08755 ± 0.0051 W/m/K | –
3091 kPa | 0.08711 ± 0.005 W/m/K | –
3092 kPa | 0.08667 ± 0.005 W/m/K | –
3094 kPa | 0.08581 ± 0.0046 W/m/K | –
3095 kPa | 0.08539 ± 0.0044 W/m/K | –
3100 kPa | 0.08334 ± 0.0039 W/m/K | –
3105 kPa | 0.08267 ± 0.004 W/m/K | –
3108 kPa | 0.08217 ± 0.0038 W/m/K | –
3115 kPa | 0.08124 ± 0.0037 W/m/K | –
3120 kPa | 0.08025 ± 0.0037 W/m/K | –
3125 kPa | 0.08032 ± 0.0037 W/m/K | –
3130 kPa | 0.08032 ± 0.0037 W/m/K | –
3132 kPa | 0.08032 ± 0.0037 W/m/K | –
